Results reported in patent publication US20100093531A1 (priority 2007, published 2010).
Like-named read-outs stand apart in the source and are kept apart here.

Assays:
Phakopsora pachyrhizi = assay: Curative control of soy bean rust on soy beans caused by Phakopsora pachyrhizi (greenhouse); format: in vivo; conditions: individual active compound, 14 days
Experimental: (§1) Preparation: The spray solutions were prepared in several steps:
(§2) A stock solution was prepared: a mixture of acetone and/or DMSO and the wetting agent/emulsifier Uniperol, which is based on ethoxylated alkylphenoles, in a relation (volume) solvent-emulsifier of 99 to 1 was added to 25 mg of the compound to give a total of 10 ml. Water was then added to total volume of 100 ml.
(§3) This stock solution was diluted with the described solvent-emulsifier-water mixture to the given concentration.
Leaves of pot-grown soy bean seedlings were inoculated with spores of Phakopsora pachyrhizi. To ensure the success the artificial inoculation, the plants were transferred to a humid chamber with a relative humidity of about 95% and 23 to 27° C. for 24 h. The next day the plants were sprayed to run-off with an aqueous suspension, containing the concentration of active ingredient as described below. The plants were allowed to air-dry. Then the trial plants were cultivated for 14 days in a greenhouse chamber at 23-27° C. and a relative humidity between 60 and 80%. The extent of fungal attack on the leaves was visually assessed as % diseased leaf area.
(§4) Evaluation was carried out analogously to example 1.

Phytophthora infestans [1] = assay: microbe, parasite or virus in culture; format: cell-based; conditions: for Efficacy in % of the untreated control: individual active compound, microtiter test, day 7
Plasmopara viticola = assay: Fungicidal control of grape downy mildew caused by Plasmopara viticola (greenhouse); format: in vivo; conditions: individual active compound
Experimental: as §1, §2, §3
Grape cuttings were grown in pots to the 4 to 5 leaf stage. These plants were sprayed to run-off with an aqueous suspension, containing the concentration of active ingredient or their mixture mentioned in the table below. The plants were allowed to air-dry. The next day they were inoculated with an aqueous spore suspension of Plasmopara viticola by spraying it at the lower leaf-side. Then the trial plants were immediately transferred for 24 h to a humid chamber with 22-24° C. and a relative humidity close to 100%. For a period of 5 days, cultivation followed in a greenhouse at 20-25° C. and a relative humidity about 50-80%. To stimulate the outbreak of the disease symptoms, the plants were transferred to a humid chamber again for 24 hours. Then the extent of fungal attack on the lower leaf surface was visually assessed as % diseased leaf area.
as §4

Phytophthora infestans [2] = format: in vivo; conditions: individual active compound, tomato, 6 days after inoculation
Botrytis cinerea = assay: Preventative control of grey mold (Botrytis cinerea) on leaves of green pepper (greenhouse); format: in vivo; conditions: individual active compound, 5 days after inoculation
Experimental: as §1, §2, §3
Young seedlings of green pepper were grown in pots to the 2 to 3 leaf stage. These plants were sprayed to run-off with an aqueous suspension, containing the concentration of active ingredient or their mixture mentioned in the table below. The next day the treated plants were inoculated with a spore suspension of Botrytis cinerea in a 2% aqueous biomalt solution. Then the trial plants were immediately transferred to a dark, humid chamber. After 5 days at 22 to 24° C. and a relative humidity close to 100% the extent of fungal attack on the leaves was visually assessed as % diseased leaf area.
as §4

Septoria tritici = assay: Activity against Septoria tritici in the microtiter test; format: cell-based; conditions: individual active compound, day 7
[3] = Phytophthora infestans, 168 h, read-out: Efficacy in % of the untreated control

CCNC(=NNc1c(Cl)cc(C(F)(F)F)cc1Cl)C1(C)CC1(Cl)Cl (stereo not drawn) [A.23-1, N-R′-2,2-dihalo-1-R″cyclo-propanecarboxamide-2-(2,6-dichloro-α,α,α-fluoro-p-tolyl)hydrazone, wherein R′ is ethyl, halo is chloro, and R″ is methyl]
Efficacy in % of the untreated control (Phakopsora pachyrhizi; 63 ppm in the spray liquor): 0% | Efficacy in % of the untreated control (Phytophthora infestans [1]; 1 ppm): 10% | Efficacy in % of the untreated control (Phytophthora infestans [1]; 4 ppm): 15% | Efficacy in % of the untreated control (Phytophthora infestans [1]; 16 ppm): 15%

C/C(=N\C#N)N(C)Cc1ccc(Cl)nc1 [Acetamipyrid]
Efficacy in % of the untreated control (Phytophthora infestans [1]; 4 ppm): 7% | Efficacy in % of the untreated control (Phytophthora infestans [1]; 16 ppm): 9% | Efficacy in % of the untreated control (Plasmopara viticola; 16 ppm in the spray liquor): 0%

CNC(=O)Oc1cccc2c1OC(C)(C)C2 [Carbofuran, reference compound]
Efficacy in % of the untreated control (Phakopsora pachyrhizi; 16 ppm in the spray liquor): 0% | inhibition of growth at 1 ppm (Phytophthora infestans [1]; [3]): 6% | inhibition of growth at 4 ppm (Phytophthora infestans [1]; [3]): 8% | inhibition of growth at 16 ppm (Phytophthora infestans [1]; [3]): 12% | Efficacy in % of the untreated control (Phytophthora infestans [2]; 16 ppm in the spray liquor): 0%

CN/C(=N\[N+](=O)[O-])NCc1cnc(Cl)s1 [Clothianidin]
inhibition of growth at 1 ppm (Phytophthora infestans [1]; [3]): 2% | inhibition of growth at 4 ppm (Phytophthora infestans [1]; [3]): 2% | inhibition of growth at 16 ppm (Phytophthora infestans [1]; [3]): 11%

N#Cc1nn(-c2c(Cl)cc(C(F)(F)F)cc2Cl)c(N)c1[S+]([O-])C(F)(F)F (stereo not drawn) [Fipronil, reference compound]
Efficacy in % of the untreated control (Botrytis cinerea; 63 ppm in the spray liquor): 10% | inhibition of growth at 1 ppm (Phytophthora infestans [1]; [3]): 1% | inhibition of growth at 4 ppm (Phytophthora infestans [1]; [3]): 16% | inhibition of growth at 16 ppm (Phytophthora infestans [1]; [3]): 20% | Efficacy in % of the untreated control (Plasmopara viticola; 16 ppm in the spray liquor): 0% | Efficacy in % of the untreated control (Phytophthora infestans [2]; 16 ppm in the spray liquor): 0% | Efficacy in % of the untreated control (Phytophthora infestans [2]; 63 ppm in the spray liquor): 0%

O=[N+]([O-])NC1=NCCN1Cc1ccc(Cl)nc1 [Imidacloprid, reference compound]
inhibition of growth at 1 ppm (Phytophthora infestans [1]; [3]): 5% | inhibition of growth at 4 ppm (Phytophthora infestans [1]; [3]): 6% | inhibition of growth at 16 ppm (Phytophthora infestans [1]; [3]): 11% | Efficacy in % of the untreated control (Phytophthora infestans [2]; 16 ppm in the spray liquor): 22%

N#Cc1ccc(C/C(=N\NC(=O)Nc2ccc(OC(F)(F)F)cc2)c2cccc(C(F)(F)F)c2)cc1 [Metaflumizon]
Efficacy in % of the untreated control (Phytophthora infestans [1]; 4 ppm): 6% | Efficacy in % of the untreated control (Phytophthora infestans [1]; 16 ppm): 12% | Efficacy in % of the untreated control (Plasmopara viticola; 16 ppm in the spray liquor): 0% | Efficacy in % of the untreated control (Septoria tritici; 63 ppm): 0%

CCc1nc2ncnn2c(N)c1CCC(C)CC(C)(C)C (stereo not drawn) [Tab. 1, # I-113, 5-ethyl-6-(3,5,5-trimethylhexyl)[1,2,4]triazolo[1,5-a]pyrimidin-7-ylamine]
inhibition of growth at 4 ppm (Phytophthora infestans [1]; [3]): 11% | Efficacy in % of the untreated control (Phytophthora infestans [2]; 4 ppm in the spray liquor): 22%

CCCCCCCCc1c(COC)nc2ncnn2c1N [Tab. 1, # I-245, 5-methoxymethyl-6-octyl-[1,2,4]triazolo[1,5-a]pyrimidin-7-ylamine]
Efficacy in % of the untreated control (Phakopsora pachyrhizi; 4 ppm in the spray liquor): 0% | Efficacy in % of the untreated control (Phakopsora pachyrhizi; 16 ppm in the spray liquor): 0% | inhibition of growth at 0.25 ppm (Phytophthora infestans [1]; [3]): 10% | Efficacy in % of the untreated control (Septoria tritici; 16 ppm): 4% | Efficacy in % of the untreated control (Phytophthora infestans [2]; 16 ppm in the spray liquor): 0%

CCCCCCCCc1nc2ncnn2c(N)c1CC [Tab. 1, # I-290, 6-ethyl-5-octyl-[1,2,4]triazolo[1,5-a]pyrimidin-7-ylamine]
Efficacy in % of the untreated control (Botrytis cinerea; 16 ppm in the spray liquor): 0% | Efficacy in % of the untreated control (Plasmopara viticola; 4 ppm in the spray liquor): 0% | Efficacy in % of the untreated control (Plasmopara viticola; 16 ppm in the spray liquor): 56%

Cc1nc2ncnn2c(N)c1-c1ccc(Cl)c(Cl)c1 [Tab. 1, I-9, 6-(3,4-dichlorophenyl)-5-methyl-[1,2,4]triazolo[1,5-a]pyrimidin-7-ylamine]
inhibition of growth at 1 ppm (Phytophthora infestans [1]; [3]): 64% | Efficacy in % of the untreated control (Plasmopara viticola; 4 ppm in the spray liquor): 0% | Efficacy in % of the untreated control (Septoria tritici; 16 ppm): 12%

CCCCCCCCc1c(CC)nc2ncnn2c1N [Tab. 1, I-110, 5-ethyl-6-octyl-[1,2,4]triazolo[1,5-a]pyrimidin-7-ylamine]
inhibition of growth at 1 ppm (Phytophthora infestans [1]; [3]): 7%

CC1(C)C(C=C(Cl)Cl)C1C(=O)OC(C#N)c1cccc(Oc2ccccc2)c1 (stereo not drawn) [alpha-Cypermethrin]
inhibition of growth at 4 ppm (Phytophthora infestans [1]; [3]): 7% | inhibition of growth at 16 ppm (Phytophthora infestans [1]; [3]): 9%

CC1(C)C(C=C(Cl)Cl)C1C(=O)OC(C#N)c1cccc(Oc2ccccc2)c1 (stereo not drawn) [α-Cypermethrin]
Efficacy in % of the untreated control (Septoria tritici; 63 ppm): 9%

CC1(C)C(C=C(Cl)Cl)C1C(=O)OC(C#N)c1cccc(Oc2ccccc2)c1 (stereo not drawn) [α-Cypermetrin]
Efficacy in % of the untreated control (Plasmopara viticola; 63 ppm in the spray liquor): 0%
